# Results reported in paper PMC6325233, “A Novel Actin Binding Drug with In Vivo Efficacy” (Antimicrobial Agents and Chemotherapy, 2018).
# Like-named read-outs stand apart in the source and are kept apart here.
# How the values were obtained:
# [1] = tested on: Candida tropicalis 28478; experiment: MIC susceptibility testing; format: cell-based; conditions: Candida tropicalis, 28478; CLSI M27-A3; read-out: Fluconazole MIC
# Experimental: (§1) Occidiofungin was purified from a liquid culture of Burkholderia contaminans MS14 as previously described ([21]). MIC susceptibility testing was performed according to the CLSI M27-A3 and M38-A2 standards for the susceptibility testing of yeasts and filamentous fungi, respectively. S. cerevisiae deletion mutants were obtained from the commercially available BY4741 deletion library (Thermo Scientific).
# [2] = tested on: Candida parapsilosis 28364; experiment: MIC susceptibility testing; format: cell-based; conditions: Lodderomyces parapsilosis, 28364; CLSI M27-A3; read-out: Fluconazole MIC
# Experimental: as §1
# [3] = tested on: Trichophyton rubrum 28659; experiment: MIC susceptibility testing; format: cell-based; conditions: Trichophyton rubrum, 28659, CLSI M38-A2
# Experimental: as §1
# [4] = tested on: Trichophyton mentagrophytes 28556; experiment: MIC susceptibility testing; format: cell-based; conditions: Trichophyton mentagrophytes, 28556, CLSI M38-A2
# Experimental: as §1
# [5] = tested on: Candida krusei 28570; experiment: MIC susceptibility testing; format: cell-based; conditions: Pichia kudriavzevii, 28570; CLSI M27-A3; read-out: Fluconazole MIC
# Experimental: as §1
# [6] = tested on: Trichophyton rubrum 28658; experiment: MIC susceptibility testing; format: cell-based; conditions: Trichophyton rubrum, 28658, CLSI M38-A2
# Experimental: as §1
# [7] = tested on: Candida albicans 28200; experiment: MIC susceptibility testing; format: cell-based; conditions: Candida albicans, 28200; CLSI M27-A3; read-out: Fluconazole MIC
# Experimental: as §1
# [8] = tested on: Candida tropicalis 28272; experiment: MIC susceptibility testing; format: cell-based; conditions: Candida tropicalis, 28272; CLSI M27-A3; read-out: Fluconazole MIC
# Experimental: as §1
# [9] = tested on: Trichophyton mentagrophytes 28641; experiment: MIC susceptibility testing; format: cell-based; conditions: Trichophyton mentagrophytes, 28641, CLSI M38-A2
# Experimental: as §1
# [10] = tested on: Candida glabrata 28271; experiment: MIC susceptibility testing; format: cell-based; conditions: Nakaseomyces glabratus, 28271, read-out: Fluconazole MIC
# Experimental: as §1
# [11] = tested on: Candida krusei 9541; experiment: MIC susceptibility testing; format: cell-based; conditions: Pichia kudriavzevii, 9541; CLSI M27-A3; read-out: Fluconazole MIC
# Experimental: as §1
# [12] = tested on: Cryptococcus neoformans 28446; experiment: MIC susceptibility testing; format: cell-based; conditions: Cryptococcus neoformans, 28446; CLSI M27-A3; read-out: Fluconazole MIC
# Experimental: as §1
# [13] = tested on: Candida parapsilosis 28174; experiment: MIC susceptibility testing; format: cell-based; conditions: Lodderomyces parapsilosis, 28174; CLSI M27-A3; read-out: Fluconazole MIC
# Experimental: as §1
# [14] = tested on: Candida glabrata 25742; experiment: MIC susceptibility testing; format: cell-based; conditions: Nakaseomyces glabratus, 25742; CLSI M27-A3; read-out: Fluconazole MIC
# Experimental: as §1
# [15] = tested on: Candida tropicalis 9624; experiment: MIC susceptibility testing; format: cell-based; conditions: Candida tropicalis, 9624; CLSI M27-A3; read-out: Fluconazole MIC
# Experimental: as §1
# [16] = tested on: Cryptococcus neoformans 27708; experiment: MIC susceptibility testing; format: cell-based; conditions: Cryptococcus neoformans, 27708; CLSI M27-A3; read-out: Fluconazole MIC
# Experimental: as §1
# [17] = tested on: Candida albicans 28102; experiment: MIC susceptibility testing; format: cell-based; conditions: Candida albicans, 28102; CLSI M27-A3; read-out: Fluconazole MIC
# Experimental: as §1
# [18] = tested on: Candida parapsilosis 2006; experiment: MIC susceptibility testing (caspofungin-resistant strain); format: cell-based; conditions: Lodderomyces parapsilosis, 2006; CLSI M27-A3; read-out: Fluconazole MIC
# Experimental: as §1
# [19] = tested on: Cryptococcus neoformans 19526; experiment: as above; format: cell-based; conditions: Cryptococcus neoformans, 19526; CLSI M27-A3; read-out: Fluconazole MIC
# Experimental: as §1
# [20] = tested on: Trichophyton mentagrophytes 10207; experiment: MIC susceptibility testing (itraconazole-resistant strain); format: cell-based; conditions: Trichophyton mentagrophytes, 10207, CLSI M38-A2
# Experimental: as §1
# [21] = tested on: Candida krusei 28415; experiment: MIC susceptibility testing (fluconazole-resistant strain); format: cell-based; conditions: Pichia kudriavzevii, 28415; CLSI M27-A3
# Experimental: as §1
# [22] = tested on: Trichophyton rubrum 11199; experiment: MIC susceptibility testing (terbinafine-resistant strain); format: cell-based; conditions: Trichophyton rubrum, 11199, CLSI M38-A2
# Experimental: as §1
# [23] = tested on: Candida albicans 23512; experiment: MIC susceptibility testing (fluconazole-resistant strain); format: cell-based; conditions: Candida albicans, 23512; CLSI M27-A3
# Experimental: as §1
# [24] = tested on: Candida glabrata 27243; experiment: as above; format: cell-based; conditions: Nakaseomyces glabratus, 27243; CLSI M27-A3
# Experimental: as §1
# [25] = target: rabbit skeletal muscle filamentous actin (F-actin) (rabbit) (UniProt P68135); experiment: co-sedimentation
# [26] = tested on: Fusarium solani 18749; experiment: MIC susceptibility testing; format: cell-based; conditions: Fusarium solani, 18749; CLSI M38-A2; read-out: Voriconazole MIC
# Experimental: as §1
# [27] = tested on: Mucor circinelloides 19445; experiment: MIC susceptibility testing; format: cell-based; conditions: Mucor circinelloides, 19445; CLSI M38-A2; read-out: Voriconazole MIC
# Experimental: as §1
# [28] = tested on: Aspergillus fumigatus 28436; experiment: MIC susceptibility testing; format: cell-based; conditions: Aspergillus fumigatus, 28436; CLSI M38-A2; read-out: Voriconazole MIC
# Experimental: as §1
# [29] = tested on: Mucor racemosus 27784; experiment: MIC susceptibility testing; format: cell-based; conditions: Mucor racemosus, 27784; CLSI M38-A2; read-out: Voriconazole MIC
# Experimental: as §1
# [30] = tested on: Fusarium solani 28386; experiment: MIC susceptibility testing; format: cell-based; conditions: Fusarium solani, 28386; CLSI M38-A2; read-out: Voriconazole MIC
# Experimental: as §1
# [31] = tested on: Rhizopus microsporus 27785; experiment: MIC susceptibility testing; format: cell-based; conditions: Rhizopus microsporus, 27785; CLSI M38-A2; read-out: Voriconazole MIC
# Experimental: as §1
# [32] = tested on: Fusarium oxysporum 27718; experiment: MIC susceptibility testing; format: cell-based; conditions: Fusarium oxysporum, 27718; CLSI M38-A2; read-out: Voriconazole MIC
# Experimental: as §1
# [33] = tested on: Rhizopus oryzae 28403; experiment: MIC susceptibility testing; format: cell-based; conditions: Rhizopus arrhizus, 28403; CLSI M38-A2; read-out: Voriconazole MIC
# Experimental: as §1
# [34] = tested on: Aspergillus fumigatus 28434; experiment: MIC susceptibility testing; format: cell-based; conditions: Aspergillus fumigatus, 28434; CLSI M38-A2; read-out: Voriconazole MIC
# Experimental: as §1
# [35] = tested on: Aspergillus flavus 28455; experiment: MIC susceptibility testing; format: cell-based; conditions: Aspergillus flavus, 28455; CLSI M38-A2; read-out: Voriconazole MIC
# Experimental: as §1
# [36] = tested on: Aspergillus flavus 28517; experiment: MIC susceptibility testing; format: cell-based; conditions: Aspergillus flavus, 28517; CLSI M38-A2; read-out: Voriconazole MIC
# Experimental: as §1
# [37] = tested on: Rhizopus microsporus 28506; experiment: MIC susceptibility testing; format: cell-based; conditions: Rhizopus microsporus, 28506; CLSI M38-A2; read-out: Voriconazole MIC
# Experimental: as §1
# [38] = tested on: Aspergillus fumigatus 28435; experiment: MIC susceptibility testing; format: cell-based; conditions: Aspergillus fumigatus, 28435; CLSI M38-A2; read-out: Voriconazole MIC
# Experimental: as §1
# [39] = tested on: Aspergillus flavus 28445; experiment: MIC susceptibility testing; format: cell-based; conditions: Aspergillus flavus, 28445; CLSI M38-A2; read-out: Voriconazole MIC
# Experimental: as §1
# [40] = tested on: Mucor fragilis 27782; experiment: MIC susceptibility testing; format: cell-based; conditions: Mucor fragilis, 27782; CLSI M38-A2; read-out: Voriconazole MIC
# Experimental: as §1
# [41] = at doses required for efficacious effect; cited from earlier work
# Experimental: Natural products with in vitro antifungal properties that target the actin cytoskeleton were previously reported ([51]). […] Occidiofungin, on the other hand, is well tolerated at 5 mg/kg or 20 mg/kg when administered intravenously or subcutaneously, respectively ([22], [25]). This dose is much higher than the MIC of occidiofungin against several fungal pathogens. ...
compound,measurement,setting,value
"OC(Cn1cncn1)(Cn1cncn1)c1ccc(F)cc1F [Fluconazole, fluconazole, reference compound]",MIC,[1],0.125 µg/mL
same,MIC,[2],0.25 µg/mL
same,MIC,[3]; read-out: Fluconazole MIC,2 µg/mL
same,MIC,[4]; read-out: Fluconazole MIC,> 16 µg/mL
same,MIC,[5],16 µg/mL
same,MIC,[6]; read-out: Fluconazole MIC,2 µg/mL
same,MIC,[7],8 µg/mL
same,MIC,[8],0.125 µg/mL
same,MIC,[9]; read-out: Fluconazole MIC,16 µg/mL
same,MIC,[10],> 64 µg/mL
same,MIC,[11],16 µg/mL
same,MIC,[12],4 µg/mL
same,MIC,[13],0.25 µg/mL
same,MIC,[14],4 µg/mL
same,MIC,[15],0.25 µg/mL
same,MIC,[16],2 µg/mL
same,MIC,[17],0.125 µg/mL
same,MIC,[18],0.125 µg/mL
same,MIC,[19],4 µg/mL
same,MIC,[20]; read-out: Fluconazole MIC,> 16 µg/mL
same,MIC,[21],64 µg/mL
same,MIC,[22]; read-out: Fluconazole MIC,0.25 µg/mL
same,MIC,[23],32 µg/mL
same,MIC,[24],64 µg/mL
Occidiofungin (peptide),Kd,[25],1 µM
same,stoichiometry N (occidiofungin per actin monomer),[25],24
"C[C@@H](c1ncncc1F)[C@](O)(Cn1cncn1)c1ccc(F)cc1F [Voriconazole, voriconazole, reference compound]",MIC,[3]; read-out: Voriconazole MIC,0.03 µg/mL
same,MIC,[4]; read-out: Voriconazole MIC,0.06 µg/mL
same,MIC,[6]; read-out: Voriconazole MIC,0.03 µg/mL
same,MIC,[26],> 16 µg/mL
same,MIC,[27],> 16 µg/mL
same,MIC,[28],1 µg/mL
same,MIC,[9]; read-out: Voriconazole MIC,0.06 µg/mL
same,MIC,[29],> 16 µg/mL
same,MIC,[30],> 16 µg/mL
same,MIC,[31],> 16 µg/mL
same,MIC,[32],> 16 µg/mL
same,MIC,[33],> 16 µg/mL
same,MIC,[34],1 µg/mL
same,MIC,[35],2 µg/mL
same,MIC,[36],1 µg/mL
same,MIC,[37],16 µg/mL
same,MIC,[38],1 µg/mL
same,MIC,[39],2 µg/mL
same,MIC,[40],> 16 µg/mL
same,MIC,[20]; read-out: Voriconazole MIC,0.25 µg/mL
same,MIC,[22]; read-out: Voriconazole MIC,0.008 µg/mL
COC(CC1OC(=O)CC(O)C/C=C/C(=O)C(C)C(OC)c2coc(n2)-c2coc(n2)-c2coc(n2)/C=C/CCC1C)C(C)CCC(=O)C(C)C(C/C=C/N(C)C=O)OC (stereo not drawn) [halichondramide],toxicity in animals,[41],limited by their toxicity in animals
